Where two headings read alike, the source gives them in different places. Marks after values point to notes of the source that are not given here.
Key:
[1] = tested on: first-line patients of ovarian carcinoma; conditions: cited from earlier work; for OS HR: compared to patients not treated with bevacizumab; for PFS HR: continuous after combination with carboplatin/paclitaxel
[2] = tested on: women with newly diagnosed epithelial ovarian carcinoma
Method: The study was conducted as an open label, multicenter, three-arm phase II clinical trial in women with newly diagnosed epithelial ovarian carcinoma, who have undergone debulking surgery.
The planned number of chemotherapy cycles was 6 in all treatment groups (FIG. 1).
Results were calculated either by using as beginning of the trial period the time of first treatment or the time of randomization. Two pre-planned per protocol interim analyses of PFS and OS from the date of randomization were performed first at 6 months and second at 12 months after the last dose of standard of care chemotherapy of the last enrolled patient. […]
A log-rank test was used for comparing the PFS and OS distributions of the two treatment groups: • H01: PFS/OS group A=PFS/OS group C vs H11: PFS/OS group C≠PFS/OS group A, • H02: PFS/OS group B=PFS/OS group C vs H12: PFS/OS group C≠PFS/OS group B.
The hazard ratio (HR) was calculated using Cox proportional hazard regression. The estimate for the HR was based on fitting a proportional hazards regression model: λ(t)=λ0(t)*exp(βz), • wherein λ0(t) is the baseline hazard function for group C, λ(t) is the hazard function for group A/group B, z is a binary covariate (being 1 for group A/group B and 0 for group C), and exp(β) is the HR. Efficacy in the ITT Population

[3] = bevacizumab 7.5 mg/kg IV q3w, 12 months
[4] = bevacizumab 15 mg/kg IV q3w, 15 months
[5] = treatment group C (standard of care chemotherapy alone), shorter reporting time period

| Substance | OS HR [1, 3] | OS HR ([1]; bevacizumab 7.5 mg/kg IV q3w, 12 months, listed as Bevacizumab) | PFS HR [1, 3] | OS HR [1, 4] | OS HR ([1]; bevacizumab 15 mg/kg IV q3w, 15 months, listed as Bevacizumab) | PFS HR [1, 4] | Safety ([1]; side effects e.g. gastrointestinal perforation and fistulae, wound healing complications, hypertension, thromboembolism or haemorrhage, congestive heart failure, neutropenia and infections) | patients who have died ([2]; standard of care arm (group C), per-protocol population, more than 3.5 years after inclusion) | SAEs reported [2, 5] | patients with SAEs [2, 5] |
| --- | --- | --- | --- | --- | --- | --- | --- | --- | --- | --- |
| bevacizumab | 0.99 | 0.99^c | 0.86^c | 0.88 | 0.88^c | 0.7^c | an increased risk for |  |  |  |
| carboplatin and paclitaxel |  |  |  |  |  |  |  | about 40% | 14 | 9 |
